For one test, the target named is hAM1 receptor (Homo sapiens, UniProt O60895+Q16602). Put plainly: cAMP assay for in vitro receptor activation, hAM1-R. The format is cell-based. The note with it: cAMP assay, hAM1 receptor; read-out: hAM1R EC50. A digest of the protocol:
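Stable hAM1 cells (monoclonal) plated 8000/well; buffer DPBS, 0.05% casein, 0.5 mM IBMX; cAMP read-out.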
(In general: cAMP levels reflect the balance of adenylyl cyclase and phosphodiesterase activity.)

The next test has as its target T1, hAMY3 receptor (Homo sapiens, UniProt O60896+P30988).
T1 sequence (P30988 25-474): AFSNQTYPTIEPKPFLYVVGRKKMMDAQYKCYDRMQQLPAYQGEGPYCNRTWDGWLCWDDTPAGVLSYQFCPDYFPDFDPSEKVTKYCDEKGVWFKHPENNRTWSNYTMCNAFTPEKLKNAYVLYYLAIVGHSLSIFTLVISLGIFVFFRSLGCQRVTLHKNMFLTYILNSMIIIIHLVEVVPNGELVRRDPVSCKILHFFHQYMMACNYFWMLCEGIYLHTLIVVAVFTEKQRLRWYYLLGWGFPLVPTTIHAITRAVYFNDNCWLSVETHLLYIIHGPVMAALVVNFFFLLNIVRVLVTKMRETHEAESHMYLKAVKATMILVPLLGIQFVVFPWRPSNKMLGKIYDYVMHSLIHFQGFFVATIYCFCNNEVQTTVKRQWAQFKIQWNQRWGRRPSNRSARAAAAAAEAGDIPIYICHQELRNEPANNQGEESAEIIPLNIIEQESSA
T1 sequence (O60896 24-148 partner): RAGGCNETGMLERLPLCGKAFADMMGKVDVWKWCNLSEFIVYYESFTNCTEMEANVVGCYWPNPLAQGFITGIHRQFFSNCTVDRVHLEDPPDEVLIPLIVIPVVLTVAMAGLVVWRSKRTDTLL
In words: cAMP assay for in vitro receptor activation, hAMY3-R. The test is classed as cell-based. Particulars: cAMP assay, hAMY3 receptor; read-out: hAMY3R EC50. An outline of the steps:
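Graded compound concentrations were applied for 30 min at room temperature to stably hAMY3-expressing cells in DPBS, 0.05% casein, 0.5 mM IBMX; cAMP detected by TR-FRET.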

Numbered stars: 1 amine (or outer) side, 2 acyl side, 3 side chain; on linkers, the order of the positions; unused ones are H or OH. Bridge positions count the residues as written; N and C are the ends. Square brackets hold non-standard residues; d marks the D form. Side chains are listed from the residue outwards. Peptide text beside a SMILES is read from it. * marks the point of attachment. C20 diacid = O=C(O)CCCCCCCCCCCCCCCCCCC(=O)*; γGlu = O=C(O)[C@H](CCC(=O)[*:2])N[*:1]; Hyp = O=C(O)[C@@H]1C[C@@H](O)CN1; AEEA = NCCOCCOCC(=O)O

In general, EC50 refers to the midpoint of the concentration-response curve.

Chain of hAM1 receptor (Q16602 23-461): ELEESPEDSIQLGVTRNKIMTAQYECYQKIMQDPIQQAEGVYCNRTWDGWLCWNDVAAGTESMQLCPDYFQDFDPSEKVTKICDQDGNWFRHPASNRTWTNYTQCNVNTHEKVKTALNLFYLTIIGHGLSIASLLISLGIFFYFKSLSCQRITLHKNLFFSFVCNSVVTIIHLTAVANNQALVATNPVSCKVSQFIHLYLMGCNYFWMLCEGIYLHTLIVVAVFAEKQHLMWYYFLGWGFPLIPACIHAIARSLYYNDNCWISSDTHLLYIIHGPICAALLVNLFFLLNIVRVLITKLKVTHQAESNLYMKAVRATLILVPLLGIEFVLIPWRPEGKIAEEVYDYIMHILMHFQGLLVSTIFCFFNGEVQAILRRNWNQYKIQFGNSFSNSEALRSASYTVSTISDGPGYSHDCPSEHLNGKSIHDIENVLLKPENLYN
Chain of hAM1 receptor (O60895 43-175 partner): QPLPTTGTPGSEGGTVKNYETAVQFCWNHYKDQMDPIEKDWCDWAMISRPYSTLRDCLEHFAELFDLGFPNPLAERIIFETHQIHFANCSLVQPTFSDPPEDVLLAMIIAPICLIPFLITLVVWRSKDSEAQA

Take `CC[C@H](C)[C@H](NC(=O)[C@H](CCC(N)=O)NC(=O)[C@H](CCC(=O)O)NC(=O)[C@H](C)NC(=O)[C@H](CC(C)C)NC(=O)[C@H](CCCNC(=N)N)NC(=O)[C@H](C)NC(=O)[C@@H](NC(=O)[C@@H](NC(=O)[C@@H]1CSSC[C@H](NC(=O)[C@H](CCCCN)NC(=O)CC[C@H](NC(=O)CCCCCCCCCCCCCCCCCCC(=O)O)C(=O)O)C(=O)N[C@@H](CC(N)=O)C(=O)N[C@@H]([C@@H](C)O)C(=O)N[C@@H](C)C(=O)N[C@@H]([C@@H](C)O)C(=O)N1)[C@@H](C)O)C(C)C)C(=O)N[C@@H](Cc1ccc(O)cc1)C(=O)N[C@@H](CCC(N)=O)C(=O)N[C@@H](Cc1ccccc1)C(=O)N[C@H](C(=O)N[C@@H](CC(=O)O)C(=O)N[C@@H](CCCCN)C(=O)N[C@@H](CC(=O)O)C(=O)N[C@@H](CCCCN)C(=O)N[C@@H](CC(=O)O)C(=O)N1CCC[C@H]1C(=O)N[C@H](C(=O)N[C@@H](C)C(=O)N1CCC[C@H]1C(=O)N1CCC[C@H]1C(=O)N[C@H](C(=O)N[C@@H](CC(N)=O)C(=O)N[C@H](C(=O)NCC(=O)N[C@@H](CO)C(=O)N[C@@H](CC(N)=O)C(=O)NCC(=O)N1C[C@H](O)C[C@H]1C(N)=O)C(C)C)[C@@H](C)O)C(C)C)[C@@H](C)O` [compound 133] ({C20 diacid-γGlu}-KCNTATCTVARLAEQIYQFTDKDKDPVAPPTNVGSNG[Hyp]-NH2; disulfide 2-7): the EC50 at hAM1 receptor was greater than 5000 nM; on hAMY3 receptor, 0.031 nM.

`CC[C@H](C)[C@H](NC(=O)[C@H](CCC(N)=O)NC(=O)[C@H](CCC(=O)O)NC(=O)[C@H](C)NC(=O)[C@H](CC(C)C)NC(=O)[C@H](CCCNC(=N)N)NC(=O)[C@H](CCC(N)=O)NC(=O)[C@@H](NC(=O)[C@@H](NC(=O)[C@@H]1CSSC[C@H](NC(=O)[C@@H](N)CCCCN)C(=O)N[C@@H](CC(N)=O)C(=O)N[C@@H]([C@@H](C)O)C(=O)N[C@@H](C)C(=O)N[C@@H]([C@@H](C)O)C(=O)N1)[C@@H](C)O)C(C)C)C(=O)N[C@@H](CCCCNC(=O)COCCOCCNC(=O)COCCOCCNC(=O)CC[C@H](NC(=O)CCCCCCCCCCCCCCCCCCC(=O)O)C(=O)O)C(=O)N[C@@H](CCC(N)=O)C(=O)N[C@@H](Cc1ccccc1)C(=O)N[C@H](C(=O)N[C@@H](CC(=O)O)C(=O)N[C@@H](CCCCN)C(=O)N[C@@H](CC(=O)O)C(=O)N[C@@H](CCCCN)C(=O)N[C@@H](CC(=O)O)C(=O)N[C@@H](CC(N)=O)C(=O)N[C@H](C(=O)N[C@@H](C)C(=O)N1CCC[C@H]1C(=O)N1CCC[C@H]1C(=O)N[C@H](C(=O)N[C@@H](CC(N)=O)C(=O)N[C@H](C(=O)NCC(=O)N[C@@H](CO)C(=O)N[C@@H](CC(N)=O)C(=O)NCC(=O)N1C[C@H](O)C[C@H]1C(N)=O)C(C)C)[C@@H](C)O)C(C)C)[C@@H](C)O` [compound 136] (H-KCNTATCTVQRLAEQIK([AEEA-AEEA-γGlu-C20 diacid])QFTDKDKDNVAPPTNVGSNG[Hyp]-NH2; disulfide 2-7; N-terminus assumed): the EC50 is greater than 5000 nM on hAM1 receptor and 0.033 nM at hAMY3 receptor.

For the compound `CC[C@H](C)[C@H](NC(=O)[C@H](CCC(N)=O)NC(=O)[C@H](Cc1c[nH]cn1)NC(=O)[C@H](C)NC(=O)[C@H](CC(C)C)NC(=O)[C@H](CCCNC(=N)N)NC(=O)[C@H](C)NC(=O)[C@@H](NC(=O)[C@@H](NC(=O)[C@@H]1CSSC[C@H](NC(=O)[C@H](CCCCN)NC(=O)CC[C@H](NC(=O)CCCCCCCCCCCCCCCCCCC(=O)O)C(=O)O)C(=O)N[C@@H](CC(N)=O)C(=O)N[C@@H]([C@@H](C)O)C(=O)N[C@@H](C)C(=O)N[C@@H]([C@@H](C)O)C(=O)N1)[C@@H](C)O)C(C)C)C(=O)N[C@@H](CC(N)=O)C(=O)N[C@@H](CCC(N)=O)C(=O)N[C@@H](Cc1ccccc1)C(=O)N[C@H](C(=O)N[C@@H](CC(=O)O)C(=O)N[C@@H](CCCCN)C(=O)N[C@@H](CC(=O)O)C(=O)N[C@@H](CCCCN)C(=O)N[C@@H](CC(=O)O)C(=O)N1CCC[C@H]1C(=O)N[C@H](C(=O)N[C@@H](C)C(=O)N1CCC[C@H]1C(=O)N1CCC[C@H]1C(=O)N[C@H](C(=O)N[C@@H](CC(N)=O)C(=O)N[C@H](C(=O)NCC(=O)N[C@@H](CO)C(=O)N[C@@H](CC(N)=O)C(=O)NCC(=O)N1C[C@H](O)C[C@H]1C(N)=O)C(C)C)[C@@H](C)O)C(C)C)[C@@H](C)O` [compound 137] ({C20 diacid-γGlu}-KCNTATCTVARLAHQINQFTDKDKDPVAPPTNVGSNG[Hyp]-NH2; disulfide 2-7), the EC50 at hAM1 receptor was greater than 5000 nM; on hAMY3 receptor it was 0.034 nM.

Take `CC[C@H](C)[C@H](NC(=O)[C@H](CCC(N)=O)NC(=O)[C@H](CCC(=O)O)NC(=O)[C@H](C)NC(=O)[C@H](CC(C)C)NC(=O)[C@H](CCCNC(=N)N)NC(=O)[C@H](CCC(N)=O)NC(=O)[C@@H](NC(=O)[C@@H](NC(=O)[C@@H]1CSSC[C@H](NC(=O)[C@H](CCCCN)NC(=O)CC[C@H](NC(=O)CCCCCCCCCCCCCCCCCCC(=O)O)C(=O)O)C(=O)N[C@@H](CC(N)=O)C(=O)N[C@@H]([C@@H](C)O)C(=O)N[C@@H](C)C(=O)N[C@@H]([C@@H](C)O)C(=O)N1)[C@@H](C)O)C(C)C)C(=O)N[C@@H](C)C(=O)N[C@@H](CCC(N)=O)C(=O)N[C@@H](Cc1ccccc1)C(=O)N[C@H](C(=O)N[C@@H](CC(=O)O)C(=O)N[C@@H](CCCCN)C(=O)N[C@@H](CC(=O)O)C(=O)N[C@@H](CCCCN)C(=O)N[C@@H](CC(=O)O)C(=O)N1CCC[C@H]1C(=O)N[C@H](C(=O)N[C@@H](C)C(=O)N1CCC[C@H]1C(=O)N1CCC[C@H]1C(=O)N[C@H](C(=O)N[C@@H](CC(N)=O)C(=O)N[C@H](C(=O)NCC(=O)N[C@@H](CO)C(=O)N[C@@H](CC(N)=O)C(=O)NCC(=O)N1C[C@H](O)C[C@H]1C(N)=O)C(C)C)[C@@H](C)O)C(C)C)[C@@H](C)O` [compound 144] ({C20 diacid-γGlu}-KCNTATCTVQRLAEQIAQFTDKDKDPVAPPTNVGSNG[Hyp]-NH2; disulfide 2-7): the figures for the EC50 at hAM1 receptor and at hAMY3 receptor were greater than 5000 nM and 0.038 nM, respectively.

Regarding `CC[C@H](C)[C@H](NC(=O)[C@H](C)NC(=O)CNC(=O)[C@H](Cc1ccccc1)NC(=O)[C@H](CC(N)=O)NC(=O)[C@H](CC(N)=O)NC(=O)[C@H](CO)NC(=O)[C@H](CO)NC(=O)[C@H](Cc1c[nH]cn1)NC(=O)[C@@H](NC(=O)[C@H](CC(C)C)NC(=O)[C@H](Cc1ccccc1)NC(=O)[C@H](CC(N)=O)NC(=O)[C@H](C)NC(=O)[C@H](CC(C)C)NC(=O)[C@H](CCCNC(=N)N)NC(=O)[C@H](CCC(N)=O)NC(=O)[C@@H](NC(=O)[C@H](C)NC(=O)[C@@H]1CSSC[C@H](NC(=O)[C@@H](N)CCCCN)C(=O)N[C@@H](CC(N)=O)C(=O)N[C@@H]([C@@H](C)O)C(=O)N[C@@H](C)C(=O)N[C@@H]([C@@H](C)O)C(=O)N1)[C@@H](C)O)C(C)C)C(=O)N[C@@H](CC(C)C)C(=O)N[C@@H](CO)C(=O)N[C@@H](CO)C(=O)N[C@H](C(=O)N[C@@H](CCCCN)C(=O)N[C@H](C(=O)NCC(=O)N[C@@H](CO)C(=O)N[C@@H](CC(N)=O)C(=O)NCC(=O)N[C@@H](Cc1ccc(O)cc1)C(N)=O)[C@@H](C)CC)[C@@H](C)O` [compound 148] (H-KCNTATCATQRLANFLVHSSNNFGAILSSTKIGSNGY-NH2; disulfide 2-7; N-terminus assumed), the EC50 is greater than 5000 nM at hAM1 receptor and 0.04 nM at hAMY3 receptor.

On to `CC[C@H](C)[C@H](NC(=O)[C@H](C)NC(=O)CNC(=O)[C@H](Cc1ccccc1)NC(=O)[C@H](CC(N)=O)NC(=O)[C@H](CC(N)=O)NC(=O)[C@H](CO)NC(=O)[C@H](CO)NC(=O)[C@H](Cc1c[nH]cn1)NC(=O)[C@@H](NC(=O)[C@H](CC(C)C)NC(=O)[C@H](Cc1ccccc1)NC(=O)[C@H](CC(N)=O)NC(=O)[C@H](C)NC(=O)[C@H](CC(C)C)NC(=O)[C@H](CCCNC(=N)N)NC(=O)[C@H](CCC(N)=O)NC(=O)[C@@H](NC(=O)[C@H](C)NC(=O)[C@@H]1CSSC[C@H](NC(=O)[C@@H](N)CCCCN)C(=O)N[C@@H](CC(N)=O)C(=O)N[C@@H]([C@@H](C)O)C(=O)N[C@@H](C)C(=O)N[C@@H]([C@@H](C)O)C(=O)N1)[C@@H](C)O)C(C)C)C(=O)N[C@@H](CC(C)C)C(=O)N1CCC[C@H]1C(=O)N[C@@H](CO)C(=O)N[C@H](C(=O)N[C@@H](CCCCN)C(=O)N[C@H](C(=O)NCC(=O)N1CCC[C@H]1C(=O)N[C@@H](CC(N)=O)C(=O)NCC(=O)N[C@@H](Cc1ccc(O)cc1)C(N)=O)C(C)C)[C@@H](C)O` [compound 149] (H-KCNTATCATQRLANFLVHSSNNFGAILPSTKVGPNGY-NH2; disulfide 2-7; N-terminus assumed), for which the values for the EC50 on hAM1 receptor and on hAMY3 receptor were greater than 5000 nM and 0.04 nM, respectively.

The values are drawn from US12139520B2 (priority 2020, dated 2024).
